# Laboratory results published in PubChem BioAssay AID1195 (EPA DSSTox, 2008).
# Tested on: human maximum recommended daily dose, FDA database
# Assay: DSSTox (FDAMDD) FDA Maximum (Recommended) Daily Dose Database
# Conditions: stronger effect = lower value
# Summary of the method: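 MRDD values come from clinical trials with daily oral dosing, usually for 3–12 months, for the average adult, in mg/day converted to mg/kg-bw/day assuming 60 kg. Antineoplastic mg/m2 doses are divided by 37. Activity score maps log10(1/MRDD mmol) onto 1–100.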
# [1] = TherapeuticCategory: anticonvulsant
# [2] = TherapeuticCategory: cardiotonic
# [3] = TherapeuticCategory: antibacterial
# [4] = TherapeuticCategory: vasodilator
# [5] = TherapeuticCategory: sedative, hypnotic
# [6] = TherapeuticCategory: bronchodilator
# [7] = TherapeuticCategory: glucocorticoid
compound,measurement,setting,value
O=C1NC(=O)[C@@]2(CCOc3ccc(F)cc32)N1,maximum recommended daily dose (mmol/kg-bw/day),TherapeuticCategory: none,0.0177
C1CCN2C[C@@H]3C[C@@H](CN4CCCC[C@@H]34)[C@H]2C1,maximum recommended daily dose (mmol/kg-bw/day),TherapeuticCategory: oxytocic,0.0427
CCN(CC)CCOCCOC(=O)C1(c2ccccc2)CCCC1,maximum recommended daily dose (mmol/kg-bw/day),TherapeuticCategory: antitussive,0.006
CCC1(CC)C(=O)NC(=O)N(C)C1=O,maximum recommended daily dose (mmol/kg-bw/day),[1],0.0252
CNC(C)CCC=C(C)C (configuration not stated),maximum recommended daily dose (mmol/kg-bw/day),"TherapeuticCategory: adrenergic, bronchodilator, mydriatic, antiglaucoma",0.0384
C[C@H]1O[C@@H](O[C@H]2CC[C@@]3(C)[C@H](CC[C@@H]4[C@@H]3C[C@@H](O)[C@]3(C)[C@@H](C5=CC(=O)OC5)CC[C@]43O)C2)C[C@H](O)[C@@H]1O[C@H]1C[C@H](O)[C@H](O[C@H]2C[C@H](O)[C@H](O[C@@H]3O[C@H](CO)[C@@H](O)[C@H](O)[C@H]3O)[C@@H](C)O2)[C@@H](C)O1,maximum recommended daily dose (mmol/kg-bw/day),[2],8.48e-08
COc1ccc(C2C(=O)c3ccccc3C2=O)cc1,maximum recommended daily dose (mmol/kg-bw/day),TherapeuticCategory: anticoagulant,0.0198
CN[C@@H]1[C@H](O)[C@H](NC)[C@H]2O[C@@]3(O)C(=O)C[C@@H](C)O[C@H]3O[C@@H]2[C@H]1O,maximum recommended daily dose (mmol/kg-bw/day),[3],0.201
CCCCNC(=O)NS(=O)(=O)c1ccc(N)cc1,maximum recommended daily dose (mmol/kg-bw/day),TherapeuticCategory: antidiabetic,0.0615
CNCCc1ccccn1,maximum recommended daily dose (mmol/kg-bw/day),[4],0.00587
O=C(O)[C@H]1/C(=C/CO)O[C@@H]2CC(=O)N21,maximum recommended daily dose (mmol/kg-bw/day),[3],0.0314
CN1C(=O)C(O)N=C(c2ccccc2)c2cc(Cl)ccc21 (configuration not stated),maximum recommended daily dose (mmol/kg-bw/day),[5],0.000831
CNCCC=C1c2ccccc2CCc2ccccc21,maximum recommended daily dose (mmol/kg-bw/day),TherapeuticCategory: antidepressant,0.00634
C[C@](N)(Cc1ccc(O)cc1)C(=O)O,maximum recommended daily dose (mmol/kg-bw/day),TherapeuticCategory: tyrosine hydroxylase inhibitor,0.342
C=CCC1(CC=C)C(=O)NC(=O)NC1=O,maximum recommended daily dose (mmol/kg-bw/day),[5],0.016
NC[C@H]1O[C@H](O[C@H]2[C@H](O)[C@@H](O[C@H]3O[C@H](CO)[C@@H](O)[C@H](N)[C@H]3O)[C@H](N)C[C@@H]2N)[C@H](N)[C@@H](O)[C@@H]1O,maximum recommended daily dose (mmol/kg-bw/day),[3],0.031
CC(=O)OCC(=O)[C@@]1(O)CC[C@H]2[C@@H]3CCC4=CC(=O)CC[C@]4(C)[C@@]3(F)[C@@H](O)C[C@@]21C,maximum recommended daily dose (mmol/kg-bw/day),TherapeuticCategory: mineralcorticoid,3.95e-06
NS(=O)(=O)c1cc(C(=O)O)c(NCc2ccco2)cc1Cl,maximum recommended daily dose (mmol/kg-bw/day),"TherapeuticCategory: diuretic, antihypertensive",0.0302
CC1(C)S[C@@H]2[C@H](NC(=O)C3(N)CCCCC3)C(=O)N2[C@H]1C(=O)O,maximum recommended daily dose (mmol/kg-bw/day),[3],0.0975
Cc1[nH]c(=O)c(C#N)cc1-c1ccncc1,maximum recommended daily dose (mmol/kg-bw/day),[2],0.000237
Cn1c(=O)c2c(ncn2CCCNCC(O)c2cc(O)cc(O)c2)n(C)c1=O (configuration not stated),maximum recommended daily dose (mmol/kg-bw/day),[6],0.00257
CN(C)[C@@H]1C(=O)C(C(N)=O)=C(O)[C@@]2(O)C(=O)C3=C(O)c4c(O)ccc(Cl)c4[C@@H](O)[C@H]3C[C@@H]12,maximum recommended daily dose (mmol/kg-bw/day),[3],0.0323
COc1ccc(OC)c(C(O)C(C)N)c1 (configuration not stated),maximum recommended daily dose (mmol/kg-bw/day),TherapeuticCategory: adrenergic,0.00158
COc1cc(C(=O)NS(=O)(=O)c2ccccc2C)ccc1Cc1cn(C)c2ccc(NC(=O)OC3CCCC3)cc12,maximum recommended daily dose (mmol/kg-bw/day),TherapeuticCategory: antiasthmatic,0.00116
CC(=O)OC1C([N+]2(C)CCCCC2)C[C@H]2[C@@H]3CC[C@H]4C[C@H](OC(C)=O)C(N5CCCCC5)C[C@]4(C)[C@H]3CC[C@]12C (some centres not stated),maximum recommended daily dose (mmol/kg-bw/day),TherapeuticCategory: skeletal muscle relaxant,0.000157
O=C1CN=C(c2ccccc2)c2cc([N+](=O)[O-])ccc2N1,maximum recommended daily dose (mmol/kg-bw/day),"TherapeuticCategory: anticonvulsant, hypnotic",0.00118
CN(C)CCC(c1ccc(Br)cc1)c1ccccn1 (configuration not stated),maximum recommended daily dose (mmol/kg-bw/day),TherapeuticCategory: antihistaminic,0.00125
CCCCC(=O)O[C@]1(C(=O)CO)[C@@H](C)C[C@H]2[C@@H]3CCC4=CC(=O)C=C[C@]4(C)[C@@]3(F)[C@@H](O)C[C@@]21C,maximum recommended daily dose (mmol/kg-bw/day),[7],0.000315
CCC1(c2ccccc2)C(=O)NCNC1=O,maximum recommended daily dose (mmol/kg-bw/day),[1],0.0382
OC[C@@H](O)[C@@H](O)[C@H](O)[C@@H](O)CO,maximum recommended daily dose (mmol/kg-bw/day),TherapeuticCategory: cathartic,4.57
C=CCN(C1=NCCN1)c1c(Cl)cccc1Cl,maximum recommended daily dose (mmol/kg-bw/day),TherapeuticCategory: antiarrhythmic,0.00492
OCc1cccnc1,maximum recommended daily dose (mmol/kg-bw/day),[4],0.0458
C[C@]12C=CC(=O)C=C1CC[C@@H]1[C@@H]2[C@@H](O)C[C@@]2(C)[C@H]1CC[C@]2(O)C(=O)CO,maximum recommended daily dose (mmol/kg-bw/day),[7],0.00924
CC(=O)Nc1nnc(S(N)(=O)=O)s1,maximum recommended daily dose (mmol/kg-bw/day),"TherapeuticCategory: carbonic anhydrase inhibitor, diuretic",0.0751
CCC1(C)CC(=O)NC1=O (configuration not stated),maximum recommended daily dose (mmol/kg-bw/day),[1],0.118
N=C(N)N,maximum recommended daily dose (mmol/kg-bw/day),TherapeuticCategory: none,0.846
CN[C@@H](C)[C@H](O)c1ccccc1,maximum recommended daily dose (mmol/kg-bw/day),[6],0.0101
